Test results reported in patent US8110654B2, “T cell epitope peptides of ovarian cancer anti-idiotypic antibody 6B11 and use thereof” (Peking University People;s Hospital, priority 2006, dated 2012).

Tests used:
[1] = target: HLA-A2 (Homo sapiens, UniProt P04439, D140Y/D185E/D98H/E176V/E277Q/G131W/G231S/I119V/I121R/I166T/I218V/L300P/L318F/N151K/N90K/P208A/P217A/Q86G/Q94H/R138H/R169H/T345S); test: T2 cell binding assay (HLA class I expression on T2 cells, confocal microscopy); type: cell-based; settings: for binding capacity in T2 cell binding assay (in words): T2 cells co-incubated with peptide 24 hours; for T2 binding: T2 cells co-incubated with peptide (0.3, 3, 30 μg/ml) 24 hours, HLA class I surface expression; on T2 binding: key: +++: high binding capacity; ++: moderate binding capacity; +: low binding capacity
Protocol: The peptides obtained by […] method and the VH CDR1 and VL CDR2 region peptides were subject to T2 cell binding assay. T2 cells were co-incubated with each peptides in different concentrations (0.3 μg/ml, 3 μg/ml and 30 μg/ml) for 24 hours and then co-incubated with anti-human MHC class I antibodies. The expression profile of HLA class I molecules on the surface of T2 cells was analyzed by confocal microscopy. […] They were synthesized together with the CDR peptides of the anti-idiotype antibody for screening CTL epitope peptides.

[2] = test system: anti-idiotype antibody 6B11-CTLs (reacting cells); test: BrdU ELISA cell proliferation assay, 6B11-CTLs stimulated by loaded DCs; type: cell-based, human
Protocol: Peripheral blood was drawn from HLA-A2 healthy human subjects. After EDTA anti-coagulation treatment, peripheral blood monocytes were isolated using Ficoll lymphocyte isolation 1×10^7 monocytes/well and AIM-V culture medium (containing 5% human AB serum) was added to 1 ml. The cells were incubated at 37° C. under 5% CO2 for 2 hours. Non-adherent cells were drawn and removed as lymphocytes and stored in liquid nitrogen for further use. The adherent cells were monocytes.
The monocytes isolated from said 6-well plates were added with 2 ml AIM-V culture medium (containing 5% human AB serum)/well. Recombinant human granulocyte-macrophage colony-stimulating factor (rh GM-CSF) and recombinant human interleukin-4 (rh IL-4) were added simultaneously both to a final concentration of 1000 U/ml, for induced incubation. On Day 4, 1 ml AIM-V culture medium (containing 5% human AB serum) was supplemented, and rh GM-CSF and rh IL-4 of the same concentration as mentioned above were also supplemented. On Day 6, 1 ml AIM-V culture medium (containing 5% human AB serum) was supplemented again. At the same time, recombinant human tumor necrosis factor-α (rh TNF-α), recombinant human α-interferon (rh IFN-α) and recombinant human interleukin-6 (rh IL-6) were added, all to a final concentration of 1000 U/ml, and prostaglandin E2 (PGE2) was added to a final concentration of 1 μg/ml. Co-incubation lasted 24 hours for inducing mature DCs.
On Day 4 during incubation of DCs, the culture medium, rh GM-CSF and rh IL-4 were supplemented. At the same time, anti-idiotype antibody 6B11 was added to a final concentration of 40 μg/ml for loading. The loaded cells were stored as stimulating cells for further use.
Mature DCs induced were harvested, washed and adjusted to a concentration of 1×10^6 cells/ml. Six CDR peptides (SEQ ID NOs: 1-6, see Table 1, artificially synthesized) in a final concentration of 30 μg/ml respectively, or each peptide of 30 μg/ml together with keyhole limpet hemocyanin (KLH) of 5 μg/ml were added for loading. The loaded cells were stored as stimulating cells for further use.
The freeze-stored autologous lymphocytes were stimulated by DCs loaded with anti-idiotype antibody 6B11 (anti-Id DCs), to obtain CTLs specific to anti-idiotype antibody 6B11 (6B11-CTLs). One period consists of 7 days. On Day 3 of every period, 10 U/ml recombinant human interleukin-2 (rh IL-2) was supplemented. Finally, anti-idiotype antibody 6B11-CTLs were obtained after a one- or three-period stimulation.
All the CDR peptides of anti-idiotype antibody 6B11 (6 peptides) were synthesized artificially. The peptides were screened for Th epitope peptides by cell proliferation assay. Anti-idiotype antibody 6B11-CTLs stimulated for one period were used as reacting cells. DCs loaded with anti-idiotype antibodies and peptides respectively were used as stimulating cells. The reacting cells and the stimulating cells (in the ratio of 10:1) were co-incubated at 37° C. under 5% CO2 for 120 hours and then subject to BrdU ELISA cell proliferation assay. Each well contained 100 μl AIM-V culture medium and 1×10^5 anti-idiotype antibody 6B11-CTLs. Within the last 2 hours during stimulation, 10 μl BrdU labeling solution was added into each well and the fluid in the wells was removed. The cells were dried at 60° C. for 1 hour. 200 μl of FixDenat solution was added into each well. The reaction continued for 30 minutes at 37° C. for fixing DNA in the lymphocytes. Finally, 100 μl BrdU monoclonal antibody was added into each well for 90 minutes. The absorption value at 450 nm was read by an automatic microplate reader after substrate chromogenic reaction for detecting the proliferation of the cells. The group of DCs without loading and the group of phytohaemagglutinin (PHA) were used as negative and positive control respectively. […] Other peptides could not stimulate the proliferation of the reacting cells. […]

[3] = test system: CD4 T cells; test: BrdU cell proliferation assay after magnetic bead sorting of CD4 T cells; type: cell-based, human; settings: reacting cells sorted for CD4 T cells by magnetic beads
Protocol: All the CDR peptides of anti-idiotype antibody 6B11 (6 peptides) were synthesized artificially. The peptides were screened for Th epitope peptides by cell proliferation assay. Anti-idiotype antibody 6B11-CTLs stimulated for one period were used as reacting cells. DCs loaded with anti-idiotype antibodies and peptides respectively were used as stimulating cells. The reacting cells and the stimulating cells (in the ratio of 10:1) were co-incubated at 37° C. under 5% CO2 for 120 hours and then subject to BrdU ELISA cell proliferation assay. Each well contained 100 μl AIM-V culture medium and 1×10^5 anti-idiotype antibody 6B11-CTLs. Within the last 2 hours during stimulation, 10 μl BrdU labeling solution was added into each well and the fluid in the wells was removed. The cells were dried at 60° C. for 1 hour. 200 μl of FixDenat solution was added into each well. The reaction continued for 30 minutes at 37° C. for fixing DNA in the lymphocytes. Finally, 100 μl BrdU monoclonal antibody was added into each well for 90 minutes. The absorption value at 450 nm was read by an automatic microplate reader after substrate chromogenic reaction for detecting the proliferation of the cells. The group of DCs without loading and the group of phytohaemagglutinin (PHA) were used as negative and positive control respectively. […] Other peptides could not stimulate the proliferation of the reacting cells.
For further analyzing the proliferation of the cells, stimulating cells were blocked by anti-human MHC class II antibodies, for evaluating the effect of Th epitope peptides. Firstly, the optimal application concentration of MHC class II antibodies was determined by experiments to be 1:20 dilution (FIG. 3). […] Other peptides could not trigger cell proliferation, no matter whether MHC class II antibodies were applied or not (FIG. 4). […] The reacting cells were subject to magnetic bead sorting of CD4 T cells.

“IALITTKIA [predicted 9-mer from VH CDR3]” was tested, and the “binding capacity in T2 cell binding assay (in words)” value (from here on “binding capacity”) [1] was “low binding capacity” and the T2 binding [1] was “+”.
In the case of “LITTKIAWY [predicted 9-mer from VH CDR3]”, the “binding capacity” value [1] is reported as “low binding capacity” and the T2 binding [1] is reported as “+”.
With “NNKYYNTAL [predicted 9-mer from VH CDR2]” the “binding capacity” value [1] was “high binding capacity” and the T2 binding [1] was “+++”.
“VHSNGNTYL [predicted 9-mer from VL CDR1]” was tested, and the “binding capacity” value [1] was “low binding capacity” and the T2 binding [1] was “+”.
In the case of “phytohaemagglutinin [PHA, reference compound]”, the “proliferation after blocking by MHC class II antibodies” value ([2]; anti-human MHC class II antibodies 1:20 dilution) is reported as “blocked dramatically”, the “proliferation of reacting cells 6B11-CTLs” value ([2]; stimulating DCs loaded with peptide 30 μg/ml or 6B11 40 μg/ml, 120 hours, BrdU, A450) is reported as “significant proliferation” and the “proliferation of sorted CD4 T cells” value [3] is reported as “could trigger the proliferation”.
